Where two headings read alike, the source gives them in different places.

Results on 4 compounds are retold here after US10183030B2, “17α,21-diesters of cortexolone for use in the treatment of tumors” (COSMO TECHNOLOGIES LTD., priority 2014, dated 2019).

Series [1] relates to PC3 (AR−) prostate cancer cells. Put plainly: ATP-dependent proliferation/viability assay, PC3. The format is cell-based. Particulars: Homo sapiens.
The test system of series [2] is stimulated PBMC (actively dividing cells). The experiment in a line: IC50 on stimulated PBMC (intrinsic toxicity). The format is cell-based. Particulars: Homo sapiens, PBMC STIMULATED
Protocol: (§5) The IC50 in PBMC were tested in 2 different activation status: • stimulated—actively dividing cells • resting—quiescent, non-dividing cells
(§6) IC50 of the compounds was determined on fresh cells isolated from human blood (PBMC).
In series [3] the test system is MiaPaca2 (AR low) pancreatic cancer cells. Put plainly: ATP-dependent proliferation/viability assay, MiaPaca2. The format is cell-based. To be noted: Homo sapiens. As for the experimental part:
(§1) The experimental method consisted of: • 1. […] After 24 hours, 10 nM DHT (dihydrotestosterone) with or without anti-androgen compounds, or DMSO vehicle (negative control) was added to the cultures. • 3.
(§2) Each compounds was titrated from 3 uM to 200 uM.

A further series deals with HT29 colon cancer cells. Put plainly: In vitro proliferation, HT29 (cancer cell panel). The format is cell-based. To be noted: Homo sapiens, HT-29, HT29. Here is the method: as §2
Series [4] has as its system Panc1 (AR+) pancreatic cancer cells. Put plainly: ATP-dependent proliferation/viability assay, Panc1. To be noted: Homo sapiens. The format is cell-based. Here is the method:
as §1, §2

In series [5] the test system is resting PBMC (quiescent, non-dividing cells). The experiment in a line: IC50 on resting PBMC (intrinsic toxicity). The format is cell-based. To be noted: Homo sapiens, PBMC RESTING, Table III, read-out: in vitro proliferation IC50 (μ/M).
Protocol: as §5, §6
The test system of a further series is MCF7 breast cancer cells. Put plainly: In vitro proliferation / cytotoxic assay, MCF7. The format is cell-based. Particulars: Homo sapiens.
Series [6] relates to PC3 (AR−) prostate cancer cells. Put plainly: ATP-dependent proliferation/viability assay, PC3. The format is cell-based. To be noted: Homo sapiens, 72 h, Tables I and II, unit inferred, titrated from 3 uM to 200 uM, 3 days. Here is the method:
(§3) The experiment was performed to test and to define the antitumor activity in vitro of cortexolone 17α-benzoate on LNCaP (AR^+) and PC3 (AR^−), representative of Prostatic cancer cell lines with Androgen Receptor (AR) positive or negative expression, respectively. The experimental method consisted of: • 1. […] After 24 hours, 10 nM DHT (dihydrotestosterone) with or without anti-androgen compounds, or DMSO vehicle (negative control) was added to the cultures. • 3.
(§4) The experiment was performed to test and to define antitumor activity in vitro of cortexolone 17α-valerate-21-propionate (CB-03-10) on LNCaP (AR^+) and PC3 (AR^−), representative of Prostatic cancer cell lines with AR positive or negative expression, respectively. The experimental method consisted of: • 1. […] After 24 hours, 10 nM DHT (dihydrotestosterone) with or without anti-androgen compounds, or DMSO vehicle (negative control) was added to the cultures. • 3.
as §2

A short description of series [7]: In vivo pharmacokinetics in mouse plasma. To be noted: mouse, in vivo, 40 mg/kg. Here is the method:
The pharmacokinetic of CB-03-10 was evaluated in plasma of mice after intravenous (IV), subcutaneous (SC) and oral administration (PO).
Mice (3 per group) were administered with the following doses, blood was collected at the indicated times. Plasma samples were analyzed by HPLC-MS/MS.

Series [8] deals with LNCaP (AR+) prostate cancer cells. Put plainly: ATP-dependent proliferation/viability assay, LNCaP. Particulars: Homo sapiens. The format is cell-based. Here is the method:
as §3, §4, §2

The subject of series [9] is Caspase 8, 9 and 3/7 in MiaPaca2 cells. The experiment in a line: Caspase activity in MiaPaca2 cells. The format is cell-based, human. Particulars: 8, 24, 48 hours. Here is the method:
From previous studies was determined that CB-03-10 induces apoptosis using Annexin V staining in MiaPaca2 cells. To better analyze the phenomenon the enzymatic activity of Caspase 8 (initiator caspase for Extrinsic Pathway) and Caspase 9 (initiator caspase for Intrinsic Pathway) and of Caspases 3 and 7 (effector caspases) were measured.
After 24 hours test compounds were added to cells, Gemcitabine (a known pancreatic cancer chemotherapeutic agent) and DMSO were used as positive and negative control, respectively. After 8, 24, & 48 hours incubation with test compounds, cells were lysed in buffer containing the caspase 3/7 or 8 or 9 substrate and a stable luciferase in proprietary buffers. The lysates were transferred to white opaque plates before measuring luminescence in a Tecan Safire instrument. Parallel plates treated identically, were used to determine viable cells. All caspase activities were corrected for the number of viable cells.

In series [10] the test system is PSA secretion from LNCaP prostate cancer cells. The experiment in a line: PSA secretion from LNCaP cells (Elisa). The format is cell-based. Particulars: Homo sapiens, 48 hours, read-out: IC50, inhibition of PSA secretion. As for the experimental part:
Prostate-specific antigen, or PSA, is a protein produced by cells of the prostate gland. The PSA test measures the level of PSA in a person's blood. The blood level of PSA is often elevated in men with prostate cancer and it used as surrogate marker to test prostate cancer progression in human population. After the observation that CB-03-10 was able to inhibit in vivo the growth of prostate cancer, the capability of the compound to inhibit in vitro PSA secretion from cancer cells was determined. […] After 48 hours incubation with test compounds, supernatants were harvested and tested with an Elisa assay for PSA and same cells were lysed for cell viability assessment.

A further series has as its system LNCaP cells. The experiment in a line: LNCaP cell viability in the PSA secretion experiment. The format is cell-based. Particulars: Homo sapiens, 48 hours, same cells as PSA assay. Here is the method: Prostate-specific antigen, or PSA, is a protein produced by cells of the prostate gland. The PSA test measures the level of PSA in a person's blood. The blood level of PSA is often elevated in men with prostate cancer and it used as surrogate marker to test prostate cancer progression in human population. […] After 48 hours incubation with test compounds, supernatants were harvested and tested with an Elisa assay for PSA and same cells were lysed for cell viability assessment.

The test system of a further series is MDA-MB-231 TNBC cells. Put plainly: In vitro proliferation / cytotoxic assay, MDA-MB-231. The format is cell-based.
Setting [11] is: Table III, read-out: in vitro proliferation IC50 (μ/M).
The mark [12] stands for this setting: Table IV, read-out: In vitro proliferation IC50 (micro Molar).

Protocol for MCF7 breast cancer cells: (§7) After 72 hours incubation cell were harvested, lysed and viability determined using the cell titer glow assay for viability.
Protocol for MDA-MB-231 TNBC cells: as §7

Turning to `CCCCC(=O)O[C@]1(C(=O)CO)CC[C@H]2[C@@H]3CCC4=CC(=O)CC[C@]4(C)[C@H]3CC[C@@]21C` [CB-03-05, cortexolone 17α-valerate], the IC50 in [1] (setting [11]) was 170 µM; in series [1] (setting [12]), 170 µM; in series [2] (setting [11]), 130 µM; in series [2] (setting [12]), 130 µM; in series [3] (MIA PaCa-2, 72 h, MiaPaca2, Tables I and II, unit inferred, titrated from 3 uM to 200 uM, 3 days, read-out: IC50), 59 µM; in series [3] (MIA PaCa-2, MiaPaca2, Table III, read-out: in vitro proliferation IC50 (μ/M)), 59 µM. For the same compound, the IC50 is 59 µM in series [3] (MIA PaCa-2, MiaPaca2, Table IV, read-out: In vitro proliferation IC50 (micro Molar)); 30 µM with HT29 colon cancer cells (Table III, read-out: in vitro proliferation IC50 (μ/M) (converted)); 30 µM with HT29 colon cancer cells (setting [12]); 74 µM in [4] (PANC-1, 72 h, Panc1, Tables I and II, unit inferred, titrated from 3 uM to 200 uM, 3 days, read-out: IC50); 74 µM in series [4] (PANC-1, Panc1, Table III, read-out: in vitro proliferation IC50 (μ/M)); 74 µM in series [4] (PANC-1, Panc1, Table IV, read-out: In vitro proliferation IC50 (micro Molar)). Moreover, the IC50 in [5] was 120 µM; with MCF7 breast cancer cells (MCF7 (ER+PR+GR+/−), 72 hours, Table VI, unit inferred, read-out: IC50 on breast cancer cells), 50 µM; with MCF7 breast cancer cells (MCF7, Table III, read-out: in vitro proliferation IC50 (μ/M)) it was 50 µM; in the series with MCF7 breast cancer cells (MCF7, Table IV, read-out: In vitro proliferation IC50 (micro Molar)), 50 µM; in series [6] it was 170 µM; in series [8] (72 h, Tables I and II, unit inferred, compounds titrated from 3 uM to 200 uM, 3 days, read-out: IC50), 32 µM. Further, the IC50 in series [8] (setting [11]) is 32 µM; in series [8] (setting [12]), 32 µM; in [8] (general conclusion text, read-out: IC50 in LNCaP prostate cancer cells) it was 32 µM. Moreover, the “body exposure (metabolite after CB-03-10 dosing)” value in [7] (po) amounted to 47 h/ng/mL; in series [7] (sc), 189 h/ng/mL. Further, the “Caspase 3/7 induction” value in [9] is reported as “does not show a good profile for caspase activation”.
Regarding `C[C@]12CCC(=O)C=C1CC[C@@H]1[C@@H]2CC[C@@]2(C)[C@H]1CC[C@]2(O)C(=O)CO` [Cortexolone], the IC50 is 612 µM in [10] and 153 µM in the series with LNCaP cells.
Regarding `CNC(=O)c1ccc(N2C(=S)N(c3ccc(C#N)c(C(F)(F)F)c3)C(=O)C2(C)C)cc1F` [Enzalutamide], in [10], the IC50 was under 3 µM.
Turning to `CC#C[C@]1(O)CC[C@H]2[C@@H]3CCC4=CC(=O)CCC4=C3[C@@H](c3ccc(N(C)C)cc3)C[C@@]21C` [RU486, Mifepristone], the IC50 in the series on MDA-MB-231 TNBC cells (Homo sapiens, MDA-MB-231 (ER−PR−GR++), 72 hours, Table VI, unit inferred, read-out: IC50 on breast cancer cells) is 435 µM. For the same compound, in the series with MDA-MB-231 TNBC cells (MDA-MB-231, at 100 μM), the “maximum inhibition of viability” value turned out to be 25%.
